Values of other authors in US10213524B2, “Coating comprising strontium for body implants” (ELOS MEDTECH PINOL A/S, priority 2012, dated 2019).

Tested on: mice
Settings: intravenous injection

## CC(=O)[O-].CC(=O)[O-].[Sr+2] [strontium acetate]
  toxic concentration (can cause mortality): ~40 mg/kg Sr
